According to US20130289471A1, “GAS BASED WOUND AND TISSUE THERAPEUTICS” (Virginia Commonwealth University, priority 2008, published 2013):

How the values were obtained:
[1] = Physical properties of F-tert-butylcyclohexane; type: physicochemical; set-up: Kinematic Viscosity: unit not given here
Text: Oxycyte® is based on the perfluorocarbon F-tert-butylcyclohexane, a saturated alicyctic PFC (molecular formula C10F20) and can be used as a PFC composition in the methods and uses described herein. Physical properties of F-tert-butylcyclohexane are as follows: […]

[2] = Lipophilicity of the preferred PFC (statement); type: physicochemical
Text: Being that the PFCs are slightly lipophilic at body temperature and would help in the transport of oxygen into and removal of carbon dioxide from the skin tissue, PFCs can accelerate the healing process of a wound in a tissue.

SMILES: FC(F)(F)C(C(F)(F)F)(C(F)(F)F)C1(F)C(F)(F)C(F)(F)C(F)(F)C(F)(F)C1(F)F [F-tert-butylcyclohexane, perfluoro-tert-butylcyclohexane]
- Density [1]: 1.97 g/mL
- Kinematic Viscosity [1]: 5.378
- Vapor Pressure @ 25° C. ([1]; 25° C.): 3.8 mmHg
- Vapor Pressure @ 37° C. ([1]; 37° C.): 4.4 mmHg
- lipophilicity ([2]; at body temperature): only slightly lipophilic
- lipophilicity ([2]; at room temperature): not lipophilic
